Source: patent US20210106703A1, “RADIOIMMUNOCONJUGATES IN COMBINATION WITH OTHER DRUGS AS TREATMENT AGAINST NHL” (Nordic Nanovector ASA, priority 2017, published 2021)
Read-outs that look alike come from different tables or passages of the source.

What was measured:
[1] = system: U2932 cells; test: Real Time Glo viability assay, Betalutin and cell cycle inhibitors (Example 2); assay type: cell-based, human; settings: for viability at 0.1 µM / viability at 1 µM: Homo sapiens; for viability at 0.1 µM: U2932, U2932, drug 100 nM
Protocol: (§1) Cells were split twice a week 1:3-1:5 depending on cell density. […] Real Time Glo was purchased from Promega. 384 well plates were purchased from Greiner Bio-One.
(§2) Cells were treated for 18-20 h with Betalutin at a final concentration of 1 μg/ml and 2 μg/ml in 6-well cell culture plates with shaking. After treatment, PBS was added to the cells, and the cells pelleted. Cells were first resuspended in 1 ml PBS, then washed twice in PBS and finally diluted in growth medium at the desired concentration. All cell lines were treated at a cell concentration of 2.5*10^6 cells/ml.
(§3) Regardless of cell number the culturing volume was 25 μl. For Real Time Glo, the Cell Viability Substrate and NanoLuc® Enzyme were diluted 1:500 in growth medium, and 25 μL of diluted reagents added to each well. All reagents were equilibrated to 37° C. Cells were incubated with the reaction mix for 1 h at 37° C. before the first measurement of luminescence. Measurements were repeated as often as required within 72 h after adding the reagents. Digitonin was added to cells at 200 μg/ml to record background luminescence of dead cells. A Tecan SPARK 10M plate reader was used to measure luminescence, with an integration time set to 1 sec.
(§4) Growth inhibition was calculated by dividing the luminescence signal of the treated cells by the luminescence signal of the control cells for each day of measurement after start of treatment [Table 1].
(§5) To evaluate effects of the drugs alone [(−)Betalutin] and their combination with Betalutin [(+)Betalutin], we calculated the Z-score for each sample (ZdrugX=1-(+)BetalutindrugX/(−)BetalutindrugX), where (+)BetalutindrugX and (−) BetalutindrugX are the measured luminescence intensity values for drug X in presence and absence of Betalutin, respectively. The calculation of Z-score values separately for each plate enabled comparison of results across plates, despite variations between the plates in overall signal intensity.

[2] = system: RIVA cells; test: as above; assay type: cell-based, human; settings: for viability at 0.1 µM / viability at 1 µM: Homo sapiens, read-out: Growth inhibition (signal treated/control; 1 = no change); for viability at 0.1 µM: drug 100 nM
Protocol: as §1, §2, §3, §4, §5

[3] = (+)Betalutin, Dy3, read-out: Growth inhibition (signal treated/control; 1 = no change)
[4] = (+)Betalutin, Dy4, read-out: Growth inhibition (signal treated/control; 1 = no change)
[5] = (+)Betalutin, Dy5, read-out: Growth inhibition (signal treated/control; 1 = no change)
[6] = (+)Betalutin, Dy6, read-out: Growth inhibition (signal treated/control; 1 = no change)
[7] = (−)Betalutin, Dy3, read-out: Growth inhibition (signal treated/control; 1 = no change)
[8] = (−)Betalutin, Dy4, read-out: Growth inhibition (signal treated/control; 1 = no change)
[9] = (−)Betalutin, Dy5, read-out: Growth inhibition (signal treated/control; 1 = no change)
[10] = (−)Betalutin, Dy6, read-out: Growth inhibition (signal treated/control; 1 = no change)
[11] = U2932, U2932, drug 1 μM, (+)Betalutin, Dy3, read-out: Growth inhibition (signal treated/control; 1 = no change)
[12] = U2932, U2932, drug 1 μM, (+)Betalutin, Dy4, read-out: Growth inhibition (signal treated/control; 1 = no change)
[13] = U2932, U2932, drug 1 μM, (+)Betalutin, Dy5, read-out: Growth inhibition (signal treated/control; 1 = no change)
[14] = U2932, U2932, drug 1 μM, (+)Betalutin, Dy6, read-out: Growth inhibition (signal treated/control; 1 = no change)
[15] = U2932, U2932, drug 1 μM, (−)Betalutin, Dy3, read-out: Growth inhibition (signal treated/control; 1 = no change)
[16] = U2932, U2932, drug 1 μM, (−)Betalutin, Dy4, read-out: Growth inhibition (signal treated/control; 1 = no change)
[17] = U2932, U2932, drug 1 μM, (−)Betalutin, Dy5, read-out: Growth inhibition (signal treated/control; 1 = no change)
[18] = U2932, U2932, drug 1 μM, (−)Betalutin, Dy6, read-out: Growth inhibition (signal treated/control; 1 = no change)
[19] = RIVA, drug 1 μM, +Betalutin, Dy3
[20] = RIVA, drug 1 μM, +Betalutin, Dy4
[21] = RIVA, drug 1 μM, +Betalutin, Dy5
[22] = RIVA, drug 1 μM, +Betalutin, Dy6
[23] = RIVA, drug 1 μM, −Betalutin, Dy3
[24] = RIVA, drug 1 μM, −Betalutin, Dy4
[25] = RIVA, drug 1 μM, −Betalutin, Dy5
[26] = RIVA, drug 1 μM, −Betalutin, Dy6

| Compound | viability at 0.1 µM [1, 3] [%] | viability at 0.1 µM [1, 4] [%] | viability at 0.1 µM [1, 5] [%] | viability at 0.1 µM [1, 6] [%] | viability at 0.1 µM [1, 7] [%] | viability at 0.1 µM [1, 8] [%] | viability at 0.1 µM [1, 9] [%] | viability at 0.1 µM [1, 10] [%] | viability at 1 µM [1, 11] [%] | viability at 1 µM [1, 12] [%] | viability at 1 µM [1, 13] [%] | viability at 1 µM [1, 14] [%] | viability at 1 µM [1, 15] [%] | viability at 1 µM [1, 16] [%] | viability at 1 µM [1, 17] [%] | viability at 1 µM [1, 18] [%] | Synergy for the combination with Betalutin ([1]; U2932, drug 100 nM) | Synergy for the combination with Betalutin ([1]; U2932, drug 1 μM) | viability at 0.1 µM ([2]; RIVA, +Betalutin, Dy3) [%] | viability at 0.1 µM ([2]; RIVA, +Betalutin, Dy4) [%] | also measured |
| --- | --- | --- | --- | --- | --- | --- | --- | --- | --- | --- | --- | --- | --- | --- | --- | --- | --- | --- | --- | --- | --- |
| Cc1csc(-c2nnc(Nc3ccc(Oc4ncccc4-c4ccnc(N)n4)cc3)c3ccccc23)c1 [AMG 900] | 89 | 78 | 77 | 52 | 96 | 97 | 92 | 72 | 77 | 77 | 80 | 58 | 83 | 96 | 96 | 81 | Bliss + Z-score | Z-score | 22 | 16 | viability at 0.1 µM ([2]; RIVA, +Betalutin, Dy5): 9%; viability at 0.1 µM ([2]; RIVA, +Betalutin, Dy6): 8%; viability at 0.1 µM ([2]; RIVA, −Betalutin, Dy3): 82%; viability at 0.1 µM ([2]; RIVA, −Betalutin, Dy4): 85%; viability at 0.1 µM ([2]; RIVA, −Betalutin, Dy5): 65%; viability at 0.1 µM ([2]; RIVA, −Betalutin, Dy6): 51%; viability at 1 µM [2, 19]: 9%; viability at 1 µM [2, 20]: 8%; viability at 1 µM [2, 21]: 5%; viability at 1 µM [2, 22]: 4%; viability at 1 µM [2, 23]: 60%; viability at 1 µM [2, 24]: 57%; viability at 1 µM [2, 25]: 49%; viability at 1 µM [2, 26]: 40% |
| NC(=O)Nc1cc(-c2cccc(F)c2)sc1C(=O)N[C@H]1CCCNC1 [AZD7762] | – | – | – | – | – | – | – | – | – | – | – | – | – | – | – | – | Bliss + Z-score | – | – | – | viability at 1 µM ([1]; U2932, read-out: Growth inhibition (signal treated/control; 1 = no change)): 4%; Growth inhibition (signal treated/control; 1 = no change) ([1]; human): 0.03; viability at 1 µM [2]: 3%; Growth inhibition (signal treated/control; 1 = no change) ([2]; human): 0.34 |
| Cc1nc(N)sc1-c1ccnc(Nc2ccc(N3CCOCC3)cc2)n1 [CYC116] | 92 | 94 | 80 | 75 | 94 | 97 | 106 | 121 | 72 | 82 | 74 | 56 | 85 | 89 | 83 | 61 | Bliss + Z-score | Z-score | 13 | 10 | viability at 0.1 µM ([2]; RIVA, +Betalutin, Dy5): 6%; viability at 0.1 µM ([2]; RIVA, +Betalutin, Dy6): 6%; viability at 0.1 µM ([2]; RIVA, −Betalutin, Dy3): 93%; viability at 0.1 µM ([2]; RIVA, −Betalutin, Dy4): 94%; viability at 0.1 µM ([2]; RIVA, −Betalutin, Dy5): 114%; viability at 0.1 µM ([2]; RIVA, −Betalutin, Dy6): 92%; viability at 1 µM [2, 19]: 22%; viability at 1 µM [2, 20]: 20%; viability at 1 µM [2, 21]: 14%; viability at 1 µM [2, 22]: 14%; viability at 1 µM [2, 23]: 62%; viability at 1 µM [2, 24]: 78%; viability at 1 µM [2, 25]: 70%; viability at 1 µM [2, 26]: 65% |
